In patent US4278612A, “2-Chloro-2-alkyl substituted peroxyesters” (priority 1979, dated 1981):

Experiment: Half-life data for 2-chloro-2-alkyl substituted peroxyesters (0.2M in Benzene)
Type: physicochemical
Details: for Half-Life: 200000 µM
Text: The following Table III illustrates the desirable half lifes obtainable with compositions of this invention:
HALF-LIFE DATA FOR SELECTED 2-CHLORO-2-ALKYL
SUBSTITUTED PEROXYESTERS (0.2M in Benzene)

Compound: CCCCC(Cl)(CC)C(=O)OOC(C)(C)C (stereo not drawn) [TBPCEH, t-Butyl peroxy 2-chloro-2-ethyl hexanoate]
- 10 Hr Half-Life Temp: 56.2 °C
- Half-Life (55 °C.): 11.55 h
- Half-Life (65 °C.): 3.72 h
- Half-Life (75 °C.): 1.16 h
- Half-Life (80 °C.): 0.68 h

Compound: CCC(Cl)(CC)C(=O)OOC(C)(C)CC(C)(C)C [TMBPCEB, 1,1,3,3 Tetramethylbutylperoxy-2-chloro-2-ethylbutyrate]
- Half-Life (47.5 °C.): 23.22 h
- Half-Life (50 °C.): 16.84 h
- Half-Life (55 °C.): 9.00 h
- Half-Life (65 °C.): 2.38 h
